{"source": "patent US20260108483A1", "about": "“METHODS AND COMPOSITIONS FOR PREVENTING THE PROGRESSION OF DIABETIC RETINOPATHY AND RELATED CONDITIONS” (Opus Genetics, Inc., priority 2023, published 2026)", "test_system": "diabetic retinopathy (moderately severe to severe NPDR or mild PDR)", "experiment": "Phase 2 placebo-controlled clinical study: three or more step worsening in binocular Diabetic Retinopathy Severity Scale Score", "assay_type": "in vivo, human", "conditions": "weeks 12 and 24; 600 mg/day oral (3+2 tablets of 120 mg) vs placebo", "description": "Ability of Compound 1 to prevent the progression of non-proliferative diabetic retinopathy (NPDR) and mild proliferative diabetic retinopathy (PDR) may be evaluated according to a clinical study in which Compound 1 was orally administered to patients suffering from non-proliferative diabetic retinopathy or mild proliferative diabetic retinopathy. Compound 1 has the chemical name (E)-2-((4,5-dimethoxy-2-methyl-3,6-dioxocyclohexa-1,4-dien-1-yl)methylene)undecanoic acid, and is depicted by the following chemical formula: The study was configured as a placebo-controlled, double-masked, randomized, Phase 2 study in approximately 100 subjects with moderately severe to severe NPDR (diabetic retinopathy severity score [DRSS] Level 47 or 53, see FIG. 1) or mild PDR (DRSS Level 61), evaluating safety and efficacy following administration of Compound 1 twice daily for 24 weeks. The study was configured for a 1:1 randomization (placebo: Compound 1). Randomization was stratified by level of disease severity (NPDR or PDR). Subjects with mild PDR were capped at 20% for each arm. Efficacy evaluations at 12 and/or 24 weeks included DRSS, center-involved diabetic macular edema (DME), moderate PDR or PDR-related adverse events (AEs), best-corrected visual acuity (BCVA), and central subfield thickness (CST). Further experimental procedures and results are described below. […]", "data": [{"smiles": "CCCCCCCCC/C(=C\\C1=C(C)C(=O)C(OC)=C(OC)C1=O)C(=O)O", "note": "[Compound 1, (E)-2-((4,5-dimethoxy-2-methyl-3,6-dioxocyclohexa-1,4-dien-1-yl)methylene)undecanoic acid]", "values": [{"measurement": "preventing the progression of diabetic retinopathy (patients with three or more step worsening in binocular DRSS, FIG. 3)", "value": "effective in preventing the progression of diabetic retinopathy"}]}]}
